Data as given in patent publication US10960037B2, “Method of treating neurological conditions with extract of Nerium species or Thevetia species” (PHOENIX BIOTECHNOLOGY, INC., priority 2010, dated 2021).
“Also recorded” adds a separate entry of the source.

What was measured:
[1] = system: ARE target genes Gclm, Nqo1, Srx, Hmox1; assay: ARE target gene expression by qPCR, rat co-cultures; type: cell-based; details: for expression of ARE target genes: 6 h
Experimental: FIG. 17 depicts the results of expression assays for Fraction 0-4 and the individual triterpenes oleanolic acid, ursolic acid, betulinic acid and uvaol. “X” symbols denote concentrations of compounds which induced toxicity and for which recovery of residual mRNA was insufficient to support qPCR analysis. Rat primary corticostriatal co-cultures were treated for 6 h with Fraction 0-4 (in μg/ml) or oleanolic acid, ursolic acid, betulinic acid, or uvalol (all in μM) at the concentrations indicated, then harvested and processed for qPCR analysis of the ARE target genes shown. Quantitative RNA values were normalized to the GAPDH reference control and fold-expression changes are expressed relative to the DMSO-carrier only condition (“--”) set to a value of 1. Dark bars denote statistically significant differences with respect to the DMSO-carrier only control by a Student's t-test at p<0.05.
FIG. 18 depicts the results of expression assays for Fraction 0-4 and the individual triterpenes ursolic acid and betulinic acid at more similar concentration ranges. Rat primary corticostriatal co-cultures were treated for 6 h with Fraction 0-4 (in μg/ml) or ursolic acid and betulinic acid (in μM) at the concentrations indicated, then harvested and processed for qPCR analysis of the ARE target genes shown. Quantitative RNA values were normalized to the GAPDH reference control and fold-expression changes are expressed relative to the DMSO-carrier only condition (“--”) set to a value of 1. Dark blue bars denote statistically significant differences with respect to the DMSO-carrier only control by a Student's t-test at p<0.05.
For qPCR quantification of ARE target gene expression levels, cortical and striatal neurons were plated onto 96-well plates containing mature glial cultures and cultured for 96 h. Fraction 0-4 was added to cultures at the indicated concentrations for 6 h. At the end of the treatment period, cells were lysed and total RNA was isolated using Absolutely RNA mini-prep kits (Agilent Technologies/Stratagene). cDNA was generated using oligo dT primers and Superscript II reverse transcriptase (Invitrogen). Resulting cDNA was used for quantitative PCR of gene transcripts using SYBR Green Real-Time PCR Master Mix (Life Technologies) and the following mouse primers, for: Gclc (forward-5′ […]-3′ and reverse-5′-[…]-3′), Nqo1 (forward-5′-GCCCGCATGCAGATCCT-3′ and reverse 5′-[…]3′), Srx (forward-5′-[…]-3′ and reverse-5′-[…]-3′), and Hmox1 (forward-5′-[…]-3′ and reverse-5′-[…]-3′) (Integrated DNA Technologies). […] Each biological sample was measured in triplicate on a ViiA 7 real-time PCR instrument (Applied Biosystems); fold expression was calculated after normalization to corresponding control GAPDH levels.

[2] = system: cortical pyramidal neurons in APP-transfected brain slices; assay: Brain slice APP/Aβ-induced degeneration "Alzheimer's" assay; type: cell-based, rat; details: result in words
Description: Example 9 provides a detailed description of an in vitro assay used to evaluate the efficacy of the extract for the treatment of Alzheimer's disease. The assay is a brain slice-based assay for APP/Aβ-induced (APP: amyloid precursor protein) degeneration of cortical pyramidal neurons. Upon cleavage by a secretase enzyme, the APP is reduced to Aβ peptides which are believed to be a causative factor in beta-amyloid plaque formation. Aβ proteins are associated with beta-amyloid plaque formation and are believed to be a hallmark if not etiologic factor in Alzheimer's disease. […]
The APP-WT brain slice-based Alzheimer's assay was repeated (Example 11) using fractions of the SCF extract of Nerium oleander. The number of healthy cortical neurons was determined following APP/Aβ-induced degeneration in the presence of varying amounts of fraction 0-4A of the SCF extract (0.01 to 100 μg/ml). […]
(§1) For all brain slice assays, numbers of healthy pyramidal neurons in the cortical regions of each brain slice were imaged on a Leica MZIIIFL fluorescence stereomicroscope. Cortical pyramidal neurons were readily identified by their characteristic positions and orientations in the cortical plate, and by their prominent extension of a single, apical dendrite radially towards the pial surface. […]

[3] = system: cortical and striatal neurons transfected with mutant htt; assay: Cortico-striatal co-culture "Huntington's disease" assay; type: cell-based
Description: Example 10 provides a detailed description of an assay used to evaluate the efficacy of the extract (or fraction thereof) for the treatment of Huntington's disease. Mutant htt protein is introduced via electroporation into high-density, mixed co-cultures of cortical neurons, striatal neurons, and glia. The striatal and cortical neurons are transfected with different color fluorescent proteins thereby facilitating the separate identification of the different types of neurons in the co-culture. The color fluorescent proteins are fluorescent and ‘emit’ color upon activation with a light source of appropriate wavelength. […] Such other agents can be used along with or in the absence of oleandrin or other cardiac glycoside.
In this assay, instead of using intact brain slices, mutant htt is introduced via electroporation into high-density, mixed co-cultures of cortical neurons, striatal neurons, and glia arrayed in 96-well plates. […] In this assay, over the course of 1-2 weeks in vitro, transfected mutant htt constructs induce the progressive degeneration of both striatal and cortical neurons that are subsequently quantified using automated image acquisition and object detection algorithms on the Cellomics Arrayscan VTI platform. […] In a full run, some 25,000 images are collected and analyzed in each cycle, 4 cycles per week. […]

[4] = system: healthy cortical pyramidal neurons in brain slices subjected to OGD; assay: Brain slice-based oxygen-glucose deprivation (OGD) "stroke" neuroprotection assay; type: cell-based, Sprague-Dawley rat; details: result in words
Experimental: Example 8 provides a detailed description of an in vitro assay used to evaluate the efficacy of the extract, or fraction thereof, or composition thereof, for the treatment of stroke-mediated ischemic neuronal injury. The assay is a brain slice-based assay for oxygen and glucose deprivation (OGD) used to induce 50% loss of healthy cortical neurons by 24 hours. The parent unfractionated SCF extract of Nerium species, e.g. Nerium oleander, is used as a positive control. The parent extract is then fractionated according to Example 13 to provide a fraction of extract of Nerium species. The fractions are analyzed according to Examples 6, 14 and 17.
Neocortical brain slices were prepared from PND 7 Sprague-Dawley rat pups. The cerebral cortex was dissected, cut into 400-μ-thick slices and transferred into a container containing cold artificial cerebrospinal fluid with 1 μM MK-801 before plating; MK-801 was not included in any subsequent procedures. To mimic ischemic injury using transient oxygen-glucose deprivation (OGD), slices from one hemisphere of each brain were exposed to glucose-free, N2-bubbled artificial cerebrospinal fluid for 7.5 min in a low 02 (0.5%) environment. The OGD slices were then plated side-by-side with control slices from the contralateral hemisphere on nitrocellulose or Millicell (Millipore) permeable membranes, which were prepared identically except for no OGD. Thirty minutes after plating, the brain slice pairs were transfected, transferred to 24-well plates, and incubated at 37° C. under 5% CO2 in humidified chambers. In each experiment, 5-6 minutes of oxygen-glucose deprivation (OGD) was used to induce >50% loss of healthy cortical neurons by 24 hrs. A set concentration (3 μM) of neriifolin (a cardiac glycoside) was used as the internal positive control. […] A neuroprotective composition can be used as described herein for oleandrin.
Coronal brain slices (250 μm thick) were prepared from postnatal day 10 Sprague-Dawley rat pups of either gender (Charles River) and established in organotypic culture. Animals were sacrificed in accordance with NIH guidelines and under Duke IACUC approval and oversight. […]
as §1

[5] = system: cortical neurons in "non-OGD" brain slices; assay: Non-stroke (non-OGD) brain slice assay; type: cell-based, Sprague-Dawley rat; details: sliced and YFP-transfected, no OGD
Experimental: Neuroprotective composition, oleandrin, PBI-05204 (an unfractionated SCF extract of Nerium oleander) or a fraction of the extract (PBI-04711) were tested on “nonstroked” brain slices; that is, ones that were sliced and transfected with YFP but not subjected to additional trauma via OGD. See experimental procedure outlined above.

SMILES: C=C(C)[C@@H]1CC[C@]2(C(=O)O)CC[C@]3(C)[C@H](CC[C@@H]4[C@@]5(C)CC[C@H](O)C(C)(C)[C@@H]5CC[C@]43C)[C@@H]12 [Betulinic acid, betulinic acid]
- toxicity in co-cultures [1]: toxicity at higher concentrations

SMILES: CO[C@H]1C[C@H](O[C@H]2CC[C@@]3(C)[C@H](CC[C@@H]4[C@@H]3CC[C@]3(C)[C@@H](C5=CC(=O)OC5)[C@@H](OC(C)=O)C[C@]43O)C2)O[C@@H](C)[C@@H]1O [Oleandrin, oleandrin]
- neuroprotection in APP brain slice assay [2]: concentration-dependent neuroprotection
- potency relative to KW6002 ([3]; FIGS. 3A-3D): ~100 fold
- efficacy (surviving neurons) in cortico-striatal co-culture assay ([3]; result in words): more effective than KW6002; also recorded: strongest hits; also recorded: on par with KW6002

SMILES: CC1(C)CC[C@]2(C(=O)O)CC[C@]3(C)C(=CC[C@@H]4[C@@]5(C)CC[C@H](O)C(C)(C)[C@@H]5CC[C@]43C)[C@@H]2C1 [Oleanolic acid, oleanolic acid]
- cellular toxicity [4]: not exhibited observable cellular toxicity
- neuroprotection in brain slice OGD assay [4]: robust neuroprotection
- neuroprotection in brain slice OGD assay ([4]; listed as OA): accounts for a majority of the neuroprotective activity; also recorded: substantially higher activity than UA
- expression of ARE target genes [1]: robust upregulation of canonical ARE target genes

SMILES: C[C@H]1[C@H](C)CC[C@]2(C(=O)O)CC[C@]3(C)C(=CC[C@@H]4[C@@]5(C)CC[C@H](O)C(C)(C)[C@@H]5CC[C@]43C)[C@H]12 [Ursolic acid, ursolic acid]
- neuroprotection in brain slice OGD assay ([4]; listed as UA): lower activity; also recorded: rise and fall in activity as concentration is increased
- expression of ARE target genes [1]: robust upregulation of canonical ARE target genes; also recorded: clear upregulation of Srx and Hmox1
- expression of ARE target genes ([1]; listed as UA): due more so to the activity of UA than of OA or BA

SMILES: CO[C@H]1[C@H](O)[C@H](O[C@H]2CC[C@@]3(C)[C@H](CC[C@@H]4[C@@H]3CC[C@]3(C)[C@@H](C5=CC(=O)OC5)CC[C@]43O)C2)O[C@@H](C)[C@@H]1O [neriifolin]
- neuroprotection of non-OGD brain slices [5]: modest levels of neuroprotection
